According to US20230338378A1, “Methods of Administering Myosin Inhibitors” (MYOKARDIA, INC., priority 2022, published 2023):

Legend:
[1] = system: CYP2C19; assay: Pharmacogenomics: CYP2C19 poor vs normal metabolizers, single 15 mg dose; format: in vivo, human; settings: for half-life: human, in vivo, 15 mg
Description: Mean half-life is prolonged in CYP2C19 PMs compared to NMs (23 days vs. 6 to 9 days, respectively).
Polymorphic CYP2C19 is the main enzyme involved in the metabolism of MAVACAMTEN. An individual carrying two normal function alleles is a NM (e.g., *1/*1). An individual carrying two no function alleles is a PM (e.g., *2/*2, *2/*3, *3/*3).

[2] = system: organic cation transporters (OCTs); assay: In vitro transporter inhibition; format: in vitro ADME; settings: In Vitro Studies
[3] = Plasma protein binding; format: in vitro ADME
[4] = Pharmacokinetics in hepatic impairment; format: in vivo, human; settings: mild (Child-Pugh A) or moderate (Child-Pugh B) hepatic impairment vs normal hepatic function
[5] = biological target: P-gp (Homo sapiens, UniProt P08183); assay: In vitro transporter inhibition; format: in vitro ADME; settings: In Vitro Studies
P-gp, sequence (P08183 whole entry): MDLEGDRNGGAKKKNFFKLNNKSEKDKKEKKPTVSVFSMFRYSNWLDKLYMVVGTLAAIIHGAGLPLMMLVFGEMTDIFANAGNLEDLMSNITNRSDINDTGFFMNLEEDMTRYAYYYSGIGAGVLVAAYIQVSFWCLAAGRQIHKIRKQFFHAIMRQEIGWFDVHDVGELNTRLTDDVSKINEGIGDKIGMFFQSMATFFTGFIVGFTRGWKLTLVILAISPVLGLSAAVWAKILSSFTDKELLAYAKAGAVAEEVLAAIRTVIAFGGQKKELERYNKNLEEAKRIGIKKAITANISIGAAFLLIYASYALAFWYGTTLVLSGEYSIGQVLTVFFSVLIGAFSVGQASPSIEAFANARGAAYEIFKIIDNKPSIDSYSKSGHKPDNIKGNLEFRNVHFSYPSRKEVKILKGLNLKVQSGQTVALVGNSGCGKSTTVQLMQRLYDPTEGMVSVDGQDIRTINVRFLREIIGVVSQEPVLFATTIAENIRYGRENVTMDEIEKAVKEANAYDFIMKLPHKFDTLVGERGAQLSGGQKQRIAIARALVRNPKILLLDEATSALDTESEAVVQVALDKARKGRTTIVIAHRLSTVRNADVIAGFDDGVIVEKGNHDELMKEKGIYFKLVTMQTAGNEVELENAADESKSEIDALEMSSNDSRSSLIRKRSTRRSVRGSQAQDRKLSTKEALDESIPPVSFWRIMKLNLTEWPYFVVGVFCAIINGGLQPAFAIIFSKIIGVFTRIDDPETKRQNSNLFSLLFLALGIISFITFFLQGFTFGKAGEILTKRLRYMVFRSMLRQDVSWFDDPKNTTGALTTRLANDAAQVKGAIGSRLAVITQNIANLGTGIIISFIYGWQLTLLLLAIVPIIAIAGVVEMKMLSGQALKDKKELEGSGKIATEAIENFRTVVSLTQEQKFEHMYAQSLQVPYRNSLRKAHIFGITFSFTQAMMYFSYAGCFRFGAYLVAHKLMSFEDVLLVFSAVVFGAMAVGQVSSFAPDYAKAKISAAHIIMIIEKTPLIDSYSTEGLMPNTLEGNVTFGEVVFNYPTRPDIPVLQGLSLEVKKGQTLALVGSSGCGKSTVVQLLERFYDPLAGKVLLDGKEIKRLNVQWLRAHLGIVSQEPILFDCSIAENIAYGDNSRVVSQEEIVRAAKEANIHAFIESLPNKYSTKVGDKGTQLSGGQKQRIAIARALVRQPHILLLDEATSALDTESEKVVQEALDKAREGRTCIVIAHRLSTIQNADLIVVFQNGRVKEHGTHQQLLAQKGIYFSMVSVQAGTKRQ

[6] = biological target: MATE2-K (Homo sapiens, UniProt Q86VL8); assay: In vitro transporter inhibition; format: in vitro ADME; settings: In Vitro Studies
[7] = biological target: BCRP (Homo sapiens, UniProt Q9UNQ0); assay: In vitro transporter inhibition; format: in vitro ADME; settings: In Vitro Studies
BCRP, sequence (Q9UNQ0 whole entry): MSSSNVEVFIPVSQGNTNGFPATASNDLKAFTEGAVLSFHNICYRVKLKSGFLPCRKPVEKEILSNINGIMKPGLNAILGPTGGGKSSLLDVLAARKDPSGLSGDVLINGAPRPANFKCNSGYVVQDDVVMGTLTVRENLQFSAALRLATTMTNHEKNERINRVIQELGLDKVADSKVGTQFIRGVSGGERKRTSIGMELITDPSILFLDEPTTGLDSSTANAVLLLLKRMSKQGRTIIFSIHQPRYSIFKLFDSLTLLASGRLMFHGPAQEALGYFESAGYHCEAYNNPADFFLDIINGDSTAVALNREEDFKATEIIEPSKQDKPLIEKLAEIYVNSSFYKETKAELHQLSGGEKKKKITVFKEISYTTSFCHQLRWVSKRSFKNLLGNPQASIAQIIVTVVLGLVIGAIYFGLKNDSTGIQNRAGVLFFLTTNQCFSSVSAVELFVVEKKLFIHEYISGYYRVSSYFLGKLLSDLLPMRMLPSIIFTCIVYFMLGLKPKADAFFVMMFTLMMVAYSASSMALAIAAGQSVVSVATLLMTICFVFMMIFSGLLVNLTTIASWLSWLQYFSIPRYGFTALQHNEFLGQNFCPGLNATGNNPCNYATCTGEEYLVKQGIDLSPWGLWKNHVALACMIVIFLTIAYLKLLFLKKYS

[8] = system: rasH2 transgenic mouse; assay: 6-month rasH2 transgenic mouse carcinogenicity study; format: in vivo
[9] = biological target: T1, CYP2C19 (Homo sapiens, UniProt P33261); assay: In vitro CYP inhibition; format: in vitro ADME; settings: In Vitro Studies; clinically relevant concentrations
T1 sequence (P33261 whole entry): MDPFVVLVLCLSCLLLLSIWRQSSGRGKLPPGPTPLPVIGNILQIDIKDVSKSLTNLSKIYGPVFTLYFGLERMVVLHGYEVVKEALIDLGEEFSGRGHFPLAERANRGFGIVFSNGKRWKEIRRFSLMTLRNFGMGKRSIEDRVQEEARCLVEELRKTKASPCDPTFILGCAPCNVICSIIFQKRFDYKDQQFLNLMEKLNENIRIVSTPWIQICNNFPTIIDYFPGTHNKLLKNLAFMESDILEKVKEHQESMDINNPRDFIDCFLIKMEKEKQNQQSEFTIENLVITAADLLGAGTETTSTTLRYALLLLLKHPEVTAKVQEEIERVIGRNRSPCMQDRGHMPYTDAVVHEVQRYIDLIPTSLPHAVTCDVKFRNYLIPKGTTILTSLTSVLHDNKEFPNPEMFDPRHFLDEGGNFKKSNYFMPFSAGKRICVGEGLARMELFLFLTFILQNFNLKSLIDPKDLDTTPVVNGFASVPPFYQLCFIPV

[10] = system: pregnant rats; assay: Pre/postnatal development study in rats; format: in vivo, rat
Method: In a pre/postnatal development study, mavacamten was administered orally to pregnant rats (0.3, to 1.5 mg/kg/day) from gestation Day 6 to lactation/post-partum Day 20.

[11] = biological target: T1, CYP2C19; assay: Concomitant use with weak CYP2C19 inhibitor omeprazole; format: in vivo; parameters: Mavacamten is hepatically metabolized predominantly via CYP2C19 (74%), CYP3A4 (18%) and CYP2C9 (8%); from tissue; host or cells: liver of human subjects in vivo, or a Simcyp virtual population; settings: mavacamten 15 mg with omeprazole 20 mg once daily; healthy CYP2C19 NMs and RMs
[12] = system: CYP2C19, CYP3A4; assay: Established and Potentially Significant Pharmacokinetic Drug Interactions with MAVACAMTEN (Table 1); settings: Concomitant use with a moderate to strong CYP2C19 inducer or a moderate to strong CYP3A4 inducer
[13] = system: organic anion transporting polypeptides (OATPs); assay: In vitro transporter inhibition; format: in vitro ADME; settings: In Vitro Studies
[14] = system: HCM patients; assay: Meta-analysis of QTc across clinical studies in HCM patients; format: in vivo, human; settings: therapeutic exposure range
Description: The effect of coadministration of MAVACAMTEN with QT-prolonging drugs or in patients with potassium channel variants resulting in a long QT interval have not been characterized.

[15] = system: organic anion transporters (OATs); assay: In vitro transporter inhibition; format: in vitro ADME; settings: In Vitro Studies
[16] = system: rat; assay: Rat in vivo micronucleus assay
[17] = Human experience of overdose; format: in vivo
Method: (§1) Human experience of overdose with MAVACAMTEN is limited. MAVACAMTEN has been given as a single dose of up to 144 mg in patients with HCM. […] In healthy subjects, doses of up to 25 mg have been administered for up to 25 days, with 3 of 8 participants treated at the 25 mg dose level experiencing 20% or greater reductions in LVEF. An infant death was reported after accidental ingestion of three 15 mg capsules.

[18] = biological target: CYP1A2 (Homo sapiens, UniProt P05177); assay: In vitro CYP inhibition; format: in vitro ADME; settings: In Vitro Studies
CYP1A2, sequence (P05177 whole entry): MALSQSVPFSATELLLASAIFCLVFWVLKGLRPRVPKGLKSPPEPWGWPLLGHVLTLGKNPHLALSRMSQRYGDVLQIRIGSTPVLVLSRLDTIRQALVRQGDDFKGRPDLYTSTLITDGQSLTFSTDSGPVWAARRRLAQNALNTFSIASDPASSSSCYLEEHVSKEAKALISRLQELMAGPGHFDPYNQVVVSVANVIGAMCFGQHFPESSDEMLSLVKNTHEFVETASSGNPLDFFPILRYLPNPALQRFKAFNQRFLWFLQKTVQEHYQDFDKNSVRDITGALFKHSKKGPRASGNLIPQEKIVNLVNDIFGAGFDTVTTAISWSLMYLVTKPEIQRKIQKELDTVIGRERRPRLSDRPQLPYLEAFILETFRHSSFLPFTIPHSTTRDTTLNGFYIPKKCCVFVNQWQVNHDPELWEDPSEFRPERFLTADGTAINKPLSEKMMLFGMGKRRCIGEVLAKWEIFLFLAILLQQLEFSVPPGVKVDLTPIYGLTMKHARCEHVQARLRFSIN

[19] = system: healthy subjects; assay: Doses of up to 25 mg for up to 25 days in healthy subjects; format: in vivo; settings: 25 mg dose level for up to 25 days
Method: as §1

[20] = biological target: CYP2D6 (Homo sapiens, UniProt P10635); assay: In vitro CYP inhibition; format: in vitro ADME; settings: In Vitro Studies; clinically relevant concentrations
CYP2D6, sequence (P10635 whole entry): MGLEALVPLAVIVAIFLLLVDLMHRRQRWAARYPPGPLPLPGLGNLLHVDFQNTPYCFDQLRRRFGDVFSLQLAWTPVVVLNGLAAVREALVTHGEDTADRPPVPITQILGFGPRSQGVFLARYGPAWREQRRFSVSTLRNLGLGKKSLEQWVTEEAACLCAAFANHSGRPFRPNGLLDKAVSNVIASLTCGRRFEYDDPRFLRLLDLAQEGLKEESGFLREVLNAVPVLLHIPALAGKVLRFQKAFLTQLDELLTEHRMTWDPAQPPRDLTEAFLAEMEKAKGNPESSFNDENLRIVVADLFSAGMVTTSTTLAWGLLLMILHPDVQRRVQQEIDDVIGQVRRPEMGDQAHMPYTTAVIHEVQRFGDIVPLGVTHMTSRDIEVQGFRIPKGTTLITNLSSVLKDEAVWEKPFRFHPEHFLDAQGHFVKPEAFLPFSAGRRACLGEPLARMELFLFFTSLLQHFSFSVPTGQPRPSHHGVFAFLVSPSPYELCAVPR

[21] = biological target: CYP2C9 (Homo sapiens, UniProt P11712); assay: Metabolism through CYP enzymes
CYP2C9, sequence (P11712 whole entry): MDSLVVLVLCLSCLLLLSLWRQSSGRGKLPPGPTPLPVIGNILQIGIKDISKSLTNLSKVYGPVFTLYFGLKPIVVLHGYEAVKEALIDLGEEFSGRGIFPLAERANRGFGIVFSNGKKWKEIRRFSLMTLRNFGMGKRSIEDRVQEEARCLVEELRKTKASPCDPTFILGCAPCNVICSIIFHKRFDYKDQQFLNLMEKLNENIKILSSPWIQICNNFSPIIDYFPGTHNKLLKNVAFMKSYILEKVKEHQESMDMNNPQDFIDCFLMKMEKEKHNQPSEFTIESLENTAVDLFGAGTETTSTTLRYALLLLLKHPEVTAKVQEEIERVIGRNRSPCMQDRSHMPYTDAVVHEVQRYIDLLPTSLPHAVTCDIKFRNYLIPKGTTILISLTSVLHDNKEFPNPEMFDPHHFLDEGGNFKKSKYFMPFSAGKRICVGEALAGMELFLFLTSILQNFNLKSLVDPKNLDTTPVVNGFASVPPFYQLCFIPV

[22] = biological target: MATE1 (Homo sapiens, UniProt Q96FL8); assay: In vitro transporter inhibition; format: in vitro ADME; settings: In Vitro Studies
MATE1, sequence (Q96FL8 whole entry): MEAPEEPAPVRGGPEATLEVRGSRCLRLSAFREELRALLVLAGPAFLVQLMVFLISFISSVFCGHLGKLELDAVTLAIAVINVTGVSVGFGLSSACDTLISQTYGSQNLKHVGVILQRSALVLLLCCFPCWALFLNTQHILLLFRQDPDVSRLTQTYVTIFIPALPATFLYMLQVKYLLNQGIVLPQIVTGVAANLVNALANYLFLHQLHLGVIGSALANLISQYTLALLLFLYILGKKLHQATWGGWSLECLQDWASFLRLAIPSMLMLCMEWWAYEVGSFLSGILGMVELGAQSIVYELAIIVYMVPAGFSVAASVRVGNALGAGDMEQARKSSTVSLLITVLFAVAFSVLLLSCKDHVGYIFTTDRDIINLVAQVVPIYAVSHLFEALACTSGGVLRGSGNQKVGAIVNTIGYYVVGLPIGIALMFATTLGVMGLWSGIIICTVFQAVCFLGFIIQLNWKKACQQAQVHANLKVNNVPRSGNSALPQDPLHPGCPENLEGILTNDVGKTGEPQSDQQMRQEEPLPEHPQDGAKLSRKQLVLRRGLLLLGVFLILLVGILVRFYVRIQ

[23] = system: dogs; assay: Oral animal toxicology at multiple dose levels; format: in vivo
Method: The safety of mavacamten has been evaluated in rats and dogs at multiple dose levels (0.06 to 10 mg/kg/day) orally. […] Plasma exposures (AUC) at the NOAEL in rats and dogs were 0.1 and 0.3 times, respectively, human exposure (AUC) at the MRHD.

[24] = biological target: CYP2B6 (Homo sapiens, UniProt P20813); assay: In vitro CYP inhibition; format: in vitro ADME; settings: In Vitro Studies
CYP2B6, sequence (P20813 whole entry): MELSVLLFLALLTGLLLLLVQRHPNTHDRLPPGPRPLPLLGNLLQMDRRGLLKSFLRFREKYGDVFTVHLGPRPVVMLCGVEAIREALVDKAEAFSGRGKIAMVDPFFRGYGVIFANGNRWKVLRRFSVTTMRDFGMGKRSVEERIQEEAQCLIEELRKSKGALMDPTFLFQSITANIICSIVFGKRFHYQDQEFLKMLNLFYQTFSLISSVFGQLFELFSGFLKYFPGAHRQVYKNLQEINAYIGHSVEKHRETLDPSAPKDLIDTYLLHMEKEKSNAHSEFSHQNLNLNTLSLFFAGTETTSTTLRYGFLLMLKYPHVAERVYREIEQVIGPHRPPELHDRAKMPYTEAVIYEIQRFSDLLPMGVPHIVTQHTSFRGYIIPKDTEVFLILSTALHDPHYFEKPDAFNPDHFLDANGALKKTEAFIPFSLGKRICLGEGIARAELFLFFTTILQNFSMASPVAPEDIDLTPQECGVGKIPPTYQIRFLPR

[25] = Excretion after a single 25 mg dose of radiolabeled mavacamten; format: in vivo; settings: single 25 mg dose of radiolabeled mavacamten
Method: Following a single 25 mg dose of radiolabeled mavacamten, 7% of the dose was recovered in feces (1% unchanged) and 85% in urine (3% unchanged).

[26] = CYP2C19 PMs compared to NMs, single dose of 15 mg

What does the source list for CC(C)n1c(=O)cc(N[C@@H](C)c2ccccc2)[nH]c1=O [mavacamten, (S)-3-Isopropyl-6-((1-phenylethyl)amino)pyrimidine-2,4(1H,3H)-dione]?
AUCinf increase [1, 26]: 241%; Cmax increase [1, 26]: 47%; half-life ([1]; CYP2C19 NMs): 6 to 9 days; half-life ([1]; CYP2C19 PMs): 23 days; inhibition of OCTs [2]: does not inhibit; fraction unbound [3]: 0.02 to 0.03; exposure (AUC) increase [4]: up to 220%; inhibition of P-gp [5]: does not inhibit; inhibition of MATE2-K [6]: does not inhibit; inhibition of BCRP [7]: does not inhibit; carcinogenicity ([8]; 6-month rasH2 transgenic mouse, up to 2.0 mg/kg/day in males and 3.0 mg/kg/day in females): no evidence of carcinogenicity; exposure (AUC) compared to AUC exposures in humans at the MRHD ([8]; females, 3.0 mg/kg/day): 3 fold; exposure (AUC) compared to AUC exposures in humans at the MRHD ([8]; males, 2.0 mg/kg/day): 1.8 fold; inhibition of CYP2C19 [9]: not an inhibitor; no-observed-adverse-effect level (NOAEL) ([10]; pre/postnatal development study, rats, highest dosage level tested): 1.5 mg/kg/day; effects in dams or offspring ([10]; pregnant rats, oral 0.3 to 1.5 mg/kg/day, gestation Day 6 to lactation/post-partum Day 20): No adverse effects were observed; effect on mavacamten Cmax [11]: no effect; mavacamten AUCinf increase [11]: 48%; Clinical Impact on mavacamten exposure [12]: moderate to strong CYP3A4 inducer decreases mavacamten exposure,; inhibition of OATPs [13]: does not inhibit; QTc interval [14]: does not suggest clinically relevant increases in the QTc interval; inhibition of OATs [15]: does not inhibit; genotoxicity [16]: not genotoxic; events after overdose ([17]; one subject, single dose of 144 mg, subject recovered): serious adverse events including vasovagal reaction, hypotension, and asystole; outcome after accidental ingestion ([17]; three 15 mg capsules): infant death; inhibition of CYP1A2 [18]: does not inhibit; participants experiencing 20% or greater reductions in LVEF [19]: 3 of 8; inhibition of CYP2D6 [20]: not an inhibitor; metabolized through CYP2C9 [21]: 8%; inhibition of MATE1 [22]: does not inhibit; Other findings [23]: QTc prolongation; Plasma exposure (AUC) at the NOAEL vs human exposure (AUC) at the MRHD [23]: 0.3 times; Noted toxicities ([23]; 0.06 to 10 mg/kg/day orally): echocardiographic findings, reduction in systolic function, cardiac dilation, and death; inhibition of CYP2B6 [24]: does not inhibit; dose recovered in feces [25]: 7%; dose recovered in feces unchanged [25]: 1%; dose recovered in urine [25]: 85%; dose recovered in urine unchanged [25]: 3%
